In PubChem BioAssay (NCI):
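Assay format: 96-well plates, 48-hour exposure. Abbreviation: GI50, concentration required for 50% inhibition of growth. TGI marks complete inhibition of growth.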

Tests used:
Assay in all cases: DTP human tumour cell line panel, 48 h
ACHN renal = test system: ACHN renal
IGROV1 ovarian = test system: IGROV1 ovarian
KM12 colon = test system: KM12 colon
LOX IMVI melanoma = test system: LOX IMVI melanoma
MALME-3M melanoma = test system: MALME-3M melanoma
OVCAR-4 ovarian = test system: OVCAR-4 ovarian
SK-MEL-28 melanoma = test system: SK-MEL-28 melanoma
TK-10 renal = test system: TK-10 renal
K-562 leukemia = test system: K-562 leukemia
M19-MEL melanoma = test system: M19-MEL melanoma

Row | SMILES | GI50 (ACHN renal) [µM] | TGI (ACHN renal) [µM] | GI50 (IGROV1 ovarian) [µM] | TGI (IGROV1 ovarian) [µM] | GI50 (KM12 colon) [µM] | TGI (KM12 colon) [µM] | GI50 (LOX IMVI melanoma) [µM] | TGI (LOX IMVI melanoma) [µM] | GI50 (MALME-3M melanoma) [µM] | TGI (MALME-3M melanoma) [µM] | GI50 (OVCAR-4 ovarian) [µM] | TGI (OVCAR-4 ovarian) [µM] | GI50 (SK-MEL-28 melanoma) [µM] | TGI (SK-MEL-28 melanoma) [µM] | GI50 (TK-10 renal) [µM] | TGI (TK-10 renal) [µM] | TGI (K-562 leukemia) [µM] | TGI (M19-MEL melanoma) [µM] | GI50 (K-562 leukemia) [µM]
1 | O=[N+]([O-])c1ccc(N/N=C\c2ccc(O)cc2O)nc1 | 0.599 | 21.3 | 3.4 | > 100 | 1.91 | > 100 | 0.754 | > 100 | 2.61 | > 100 | 1.11 | > 100 | 5.03 | > 100 | 5.09 | > 100 | – | – | –
2 | CSc1nc(NC2OC(CO)C(O)C(O)C2O)c(N)c(=O)[nH]1 (stereo unspecified) | – | – | – | > 100 | – | > 100 | – | > 100 | – | > 100 | – | > 100 | – | > 100 | – | – | > 100 | > 100 | –
3 | O=c1n(CC2CO2)c2ccccc2n1CC1CS1 (stereo unspecified) | – | > 100 | – | > 100 | – | > 100 | – | > 100 | – | > 100 | – | > 100 | – | > 100 | – | > 100 | > 100 | > 100 | –
4 | COc1ccc(Nc2cnc3cc(N)ccc3n2)cc1OC | – | > 100 | – | > 100 | – | > 100 | – | > 100 | – | > 100 | – | – | – | > 100 | – | > 100 | > 100 | > 100 | –
5 | O=C(O)c1cc2sc(C(=O)O)cc2s1 | – | – | – | > 100 | – | > 100 | – | > 100 | – | > 100 | – | > 100 | – | – | – | > 100 | > 100 | > 100 | –
6 | COC(=O)C(Cc1cc(OC)c(OC)c(OC)c1)(NC(=O)c1ccccc1)P(=O)(OC)OC (stereo unspecified) | – | > 100 | – | > 100 | – | > 100 | – | > 100 | – | – | – | > 100 | – | > 100 | – | > 100 | > 100 | > 100 | –
7 | CCCCCCCCC[C@@H]1C[C@H](O)[C@H](Cc2ccccc2)N1C(=O)OC(C)(C)C | – | 30.8 | – | 33.3 | – | 35.2 | – | – | – | 34.5 | – | 33 | – | 34.9 | – | 29.2 | > 100 | 30.9 | –
8 | COc1cc(/C=C2\CCCC3=C2N=C2SC=NN2C3c2cc(OC)c(OC)c(OC)c2)cc(OC)c1OC (stereo unspecified) | 1.88 | 3.74 | – | – | – | – | – | – | 2.99 | 7.09 | – | – | 2.07 | 5.26 | 4.19 | 47.6 | > 100 | – | 3.08
9 | Nc1[nH]nc2c1Cc1c(n(Cc3ccc(Cl)cc3)c3ccccc13)C(=O)N2 | – | – | – | 31.8 | – | – | – | 26.4 | – | 52.3 | – | 32 | – | > 100 | – | 35 | > 100 | – | –
